Laboratory results as given in PMC4003287, “Fast and economic immobilization methods described for non-commercial Pseudomonas lipases” (BMC Biotechnology, 2014).

Tests used:
LipC = biological target: T1, LipC (Pseudomonas sp. 42A2, UniProt B3GVV9); assay: transesterification to FAMEs, TLC, immobilized crude enzyme; format: biochemical; conditions: methanol 15% w/w, water 10% w/w, room temperature, 24 h; triolein of 65% purity (with di- and monolein); FAMEs seen with EP100 and MP1000 preparations
T1 construct: secreted lipase, co-expressed with foldase gene lipH of 42A2 in pBBR1MCS, host P. aeruginosa PABST7.1 (PAO1 lipA lipH deletion); crude culture supernatant, adsorbed on EP100, MP1000 or Celite 545
T1 sequence (B3GVV9 24-309): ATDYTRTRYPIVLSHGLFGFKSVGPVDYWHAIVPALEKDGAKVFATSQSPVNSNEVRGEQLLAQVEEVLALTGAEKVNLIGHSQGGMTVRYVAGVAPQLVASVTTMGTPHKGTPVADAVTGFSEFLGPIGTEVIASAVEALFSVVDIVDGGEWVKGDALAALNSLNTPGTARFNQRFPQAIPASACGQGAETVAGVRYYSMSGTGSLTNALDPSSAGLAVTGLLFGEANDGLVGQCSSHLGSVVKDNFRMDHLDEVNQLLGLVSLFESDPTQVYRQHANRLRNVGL

LipA = biological target: T2, LipA (Pseudomonas sp. 42A2, UniProt B3GVV8); assay: as above; format: biochemical; conditions: methanol 15% w/w, water 10% w/w, 30°C, 24 h; triolein of 65% purity (with di- and monolein); FAMEs seen with EP100 and Celite 545 preparations
T2 construct: secreted lipase, co-expressed with foldase gene lipH of 42A2 in pBBR1MCS, host P. aeruginosa PABST7.1 (PAO1 lipA lipH deletion); crude culture supernatant, adsorbed on EP100, MP1000 or Celite 545
T2 sequence (B3GVV8 27-311): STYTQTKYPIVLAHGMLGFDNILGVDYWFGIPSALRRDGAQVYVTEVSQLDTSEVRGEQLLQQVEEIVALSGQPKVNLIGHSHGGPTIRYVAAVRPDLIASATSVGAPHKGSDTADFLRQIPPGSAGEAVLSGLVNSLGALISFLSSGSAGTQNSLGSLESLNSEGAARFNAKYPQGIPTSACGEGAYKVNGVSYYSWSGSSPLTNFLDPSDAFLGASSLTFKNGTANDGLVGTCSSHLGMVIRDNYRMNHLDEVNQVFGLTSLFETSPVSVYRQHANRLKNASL

Structure (SMILES): CCCCCCCC/C=C\CCCCCCCC(=O)OCC(COC(=O)CCCCCCC/C=C\CCCCCCCC)OC(=O)CCCCCCC/C=C\CCCCCCCC [triolein]
- transesterification to FAMEs, TLC, immobilized crude enzyme (LipC): LipA, LipC and LipCmut produced a visible FAMEs spot when analyzed by TLC
- transesterification to FAMEs, TLC, immobilized crude enzyme (LipA): LipA, LipC and LipCmut produced a visible FAMEs spot when analyzed by TLC
